Tested on: GA-primed murine splenocytes
Assay: Tolerance method for assessing process variability

glatiramer acetate [GA]
AVG expression D8ERTD82E (probe ILMN_2731237): 8.974 | AVG expression MYO1F (probe ILMN_2731760): 8.593 | AVG expression CDC42EP3 (probe ILMN_2733185): 8.258 | AVG expression TLR2 (probe ILMN_2733733): 8.191 | AVG expression IL4I1 (probe ILMN_2733778): 13.39 | AVG expression CD1D1 (probe ILMN_2734212): 8.262 | AVG expression RAMP1 (probe ILMN_2734391): 7.212 | AVG expression ISG20 (probe ILMN_2735615): 8.139 | AVG expression IL4RA (probe ILMN_2738433): 6.897 | AVG expression PDE2A (probe ILMN_2740407): 6.704 | AVG expression NDRG3 (probe ILMN_2740628): 7.26 | AVG expression IL17F (probe ILMN_2741201): 9.282 | AVG expression NUPR1 (probe ILMN_2742042): 7.513 | AVG expression CSRP3 (probe ILMN_2742068): 7.26 | AVG expression SERPINA3F (probe ILMN_2742861): 9.63 | AVG expression MATK (probe ILMN_2743902): 6.954 | AVG expression GADD45G (probe ILMN_2744890): 10.65 | AVG expression DOCK10 (probe ILMN_2749063): 7.866 | AVG expression CSF2 (probe ILMN_2749412): 7.94 | AVG expression SPATA13 (probe ILMN_2751037): 10.49 | AVG expression 4931429111RIK (probe ILMN_2751111): 6.944 | AVG expression PHXR4 (probe ILMN_2751603): 8.973 | AVG expression 2210010N04RIK (probe ILMN_2752436): 7.364 | AVG expression TGTP (probe ILMN_2754158): 7.894 | AVG expression LTF (probe ILMN_2754364): 8.257 | AVG expression CD84 (probe ILMN_2754698): 9.661 | AVG expression FFAR2 (probe ILMN_2756046): 9.337 | AVG expression D7BWG0611E (probe ILMN_2756438): 6.424 | AVG expression ENO3 (probe ILMN_2757569): 8.71 | AVG expression BC031353 (probe ILMN_2757807): 9.011 | AVG expression PRTN3 (probe ILMN_2758029): 6.472 | AVG expression SYPL (probe ILMN_2758720): 11.58 | AVG expression TMEM66 (probe ILMN_2758878): 8.06 | AVG expression CLIC4 (probe ILMN_2761109): 11.63 | AVG expression LOC100041103 (probe ILMN_2761720): 7.612 | AVG expression TBX21 (probe ILMN_2762983): 8.48 | AVG expression BC032203 (probe ILMN_2763739): 10.17 | AVG expression ASB2 (probe ILMN_2765759): 8.795 | AVG expression CAMP (probe ILMN_2766604): 8.176 | AVG expression OCIAD2 (probe ILMN_2766875): 6.716 | AVG expression ATP1B1 (probe ILMN_2767615): 7.592 | AVG expression IFI30 (probe ILMN_2767918): 10.97 | AVG expression PIK3IP1 (probe ILMN_2769772): 7.746 | AVG expression TIMP1 (probe ILMN_2769918): 6.577 | AVG expression LOC100044439 (probe ILMN_2770066): 9.229 | AVG expression IGH-VJ558 (probe ILMN_2772264): 10.58 | AVG expression GLIPR2 (probe ILMN_2773900): 10.63 | AVG expression HSD11B1 (probe ILMN_2774160): 8.176 | AVG expression STFA1 (probe ILMN_2774410): 8.3801 | AVG expression HIST1H1C (probe ILMN_2774537): 8.165 | AVG expression SPO11 (probe ILMN_2777019): 6.908 | AVG expression GCAT (probe ILMN_2777696): 8.955 | AVG expression H2-DMA (probe ILMN_2777769): 12.53 | AVG expression LTA (probe ILMN_2780247): 8.582 | AVG expression CSRP3 (probe ILMN_2789650): 7.602 | AVG expression CD177 (probe ILMN_2789900): 6.628 | AVG expression IFNG (probe ILMN_2791459): 9.711 | AVG expression RFTN2 (probe ILMN_2795178): 7.218 | AVG expression IL12RB1 (probe ILMN_2799452): 7.405 | AVG expression S100A9 (probe ILMN_2803674): 11.05 | AVG expression TMEM108 (probe ILMN_2804559): 7.473 | AVG expression PRM1 (probe ILMN_2806549): 6.894 | AVG expression ACOT7 (probe ILMN_2807084): 9.352 | AVG expression 3110001A13RIK (probe ILMN_2807335): 8.958 | AVG expression PPIC (probe ILMN_2810882): 8.651 | AVG expression LBH (probe ILMN_2816180): 11.09 | AVG expression CPNE4 (probe ILMN_2818246): 7.052 | AVG expression DUSP10 (probe ILMN_2818964): 8.287 | AVG expression SC4MOL (probe ILMN_2823778): 9.801 | AVG expression USP28 (probe ILMN_2828768): 7.665 | AVG expression C330023M02RIK (probe ILMN_2833243): 9.988 | AVG expression C330023M02RIK (probe ILMN_2833248): 8.672 | AVG expression BRWD1 (probe ILMN_2834573): 7.683 | AVG expression EG634650 (probe ILMN_2837493): 6.736 | AVG expression ACTN1 (probe ILMN_2844996): 9.845 | AVG expression PSAP (probe ILMN_2845080): 11.88 | AVG expression KLHDC2 (probe ILMN_2845272): 12.06 | AVG expression ACTB (probe ILMN_2846865): 9.645 | AVG expression HIF1A (probe ILMN_2852034): 7.906 | AVG expression TSPAN32 (probe ILMN_2852672): 9.543 | AVG expression HIST1H1C (probe ILMN_2855315): 8.506 | AVG expression GPR114 (probe ILMN_2856926): 9.59 | AVG expression GBP6 (probe ILMN_2860645): 9.559 | AVG expression GBP6 (probe ILMN_2860649): 8.264 | AVG expression RHOD (probe ILMN_2862379): 6.304 | AVG expression FCER1A (probe ILMN_2863390): 7.15 | AVG expression OTTMUSG00000000971 (probe ILMN_2864309): 7.999 | AVG expression CD83 (probe ILMN_2865016): 12.24 | AVG expression GLDC (probe ILMN_2873750): 6.771 | AVG expression LYZ (probe ILMN_2878071): 10.5 | AVG expression TMEM66 (probe ILMN_2881296): 9.558 | AVG expression LRRK2 (probe ILMN_2883267): 9.942 | AVG expression PIRA3 (probe ILMN_2883326): 7.604 | AVG expression CCR5 (probe ILMN_2888191): 7.88 | AVG expression NSG2 (probe ILMN_2890515): 6.466 | AVG expression RGS1 (probe ILMN_2897891): 8.707 | AVG expression ATP2A3 (probe ILMN_2900462): 10.34 | AVG expression GM484 (probe ILMN_2903169): 7.045 | AVG expression GADD45G (probe ILMN_2903945): 12.68 | AVG expression ICOS (probe ILMN_2906430): 9.445 | AVG expression FCGRT (probe ILMN_2917497): 7.496 | AVG expression SCD2 (probe ILMN_2919259): 7.493 | AVG expression SLC25A1 (probe ILMN_2919263): 9.787 | AVG expression OSM (probe ILMN_2919411): 9.631 | AVG expression CASP6 (probe ILMN_2923865): 9.522 | AVG expression MPO (probe ILMN_2925094): 6.333 | AVG expression SIGLECH (probe ILMN_2928599): 6.936 | AVG expression 9130211I03RIK (probe ILMN_2930552): 7.36 | AVG expression IL4 (probe ILMN_2931334): 8.425 | AVG expression TPI1 (probe ILMN_2932359): 11.19 | AVG expression LYZS (probe ILMN_2939681): 6.97 | AVG expression DGKA (probe ILMN_2940446): 10.5 | AVG expression 4933439C20RIK (probe ILMN_2944601): 9.853 | AVG expression HP (probe ILMN_2944824): 8.175 | AVG expression RAgenericEF4 (probe ILMN_2945940): 7.203 | AVG expression CBX7 (probe ILMN_2947234): 7.729 | AVG expression ECM1 (probe ILMN_2947526): 10.05 | AVG expression NOC4L (probe ILMN_2957862): 9.678 | AVG expression CYP27A1 (probe ILMN_2960108): 6.166 | AVG expression CYP27A1 (probe ILMN_2960114): 6.441 | AVG expression H2-M2 (probe ILMN_2964185): 6.649 | AVG expression CREM (probe ILMN_2964986): 7.2 | AVG expression FXYD5 (probe ILMN_2967266): 11.61 | AVG expression AMPD1 (probe ILMN_2971142): 6.076 | AVG expression FCRLA (probe ILMN_2971171): 10.49 | AVG expression BLK (probe ILMN_2976440): 10.05 | AVG expression BLK (probe ILMN_2976441): 10.82 | AVG expression MAN2A2 (probe ILMN_2977791): 6.779 | AVG expression TMED8 (probe ILMN_2979248): 8.811 | AVG expression D12ERTD553E (probe ILMN_2983525): 9.137 | AVG expression EMP3 (probe ILMN_2984744): 11.52 | AVG expression SLC15A3 (probe ILMN_2987709): 10.2 | AVG expression STFA1 (probe ILMN_2988931): 7.963 | AVG expression CLEC4N (probe ILMN_2993314): 7.76 | AVG expression OBFC2A (probe ILMN_2996904): 7.798 | AVG expression IL27RA (probe ILMN_3002095): 10.52 | AVG expression UNC84B (probe ILMN_3004864): 10.87 | AVG expression PPA1 (probe ILMN_3005441): 12.45 | AVG expression ASNS (probe ILMN_3006123): 7.885 | AVG expression MLKL (probe ILMN_3006767): 8.575 | AVG expression ABHD14B (probe ILMN_3007862): 7.744 | AVG expression FAM169B (probe ILMN_3014674): 10.41 | AVG expression CYP4F18 (probe ILMN_3018445): 6.343 | AVG expression KIF1B (probe ILMN_3034877): 7.209 | AVG expression GBP2 (probe ILMN_3047389): 7.888 | AVG expression GLIPR2 (probe ILMN_3053593): 11.06 | AVG expression WARS (probe ILMN_3077377): 7.701 | AVG expression AHNAK (probe ILMN_3079919): 7.509 | AVG expression CYP4F18 (probe ILMN_3090207): 7.952 | AVG expression PKIB (probe ILMN_3094853): 9.029 | AVG expression TNFRSF9 (probe ILMN_3103746): 8.744 | AVG expression TIMP1 (probe ILMN_3103896): 6.734 | AVG expression CETN4 (probe ILMN_3105936): 7.334 | AVG expression TXNIP (probe ILMN_3112873): 10.81 | AVG expression HSD11B1 (probe ILMN_3115917): 8.516 | AVG expression CHI3L3 (probe ILMN_3117876): 7.418 | AVG expression LMNA (probe ILMN_3121891): 8.355 | AVG expression GBP2 (probe ILMN_3122961): 13.72 | AVG expression CD27 (probe ILMN_3128992): 10.96 | AVG expression BC004728 (probe ILMN_3130403): 9.315 | AVG expression BCAT1 (probe ILMN_3131478): 9.235 | AVG expression USP18 (probe ILMN_3131679): 9.931 | AVG expression YPEL3 (probe ILMN_3132898): 12.77 | AVG expression ANXA3 (probe ILMN_3135781): 7.965 | AVG expression SESN1 (probe ILMN_3136744): 9.838 | AVG expression LIF (probe ILMN_3137287): 6.404 | AVG expression LIF (probe ILMN_3137291): 6.545 | AVG expression BTBD11 (probe ILMN_3139253): 6.574 | AVG expression SEPP1 (probe ILMN_3141048): 6.844 | AVG expression CXCL10 (probe ILMN_3142803): 8.707 | AVG expression B3GNT8 (probe ILMN_3149776): 7.035 | AVG expression NACC2 (probe ILMN_3153982): 7.11 | AVG expression WARS (probe ILMN_3156343): 8.996 | AVG expression SYTL3 (probe ILMN_3157081): 7.084 | AVG expression PRR7 (probe ILMN_3162239): 7.209

From patent US20140193827A1 (TEVA PHARMACEUTICAL INDUSTRIES, LTD., priority 2013, published 2014)
